{"source": "patent US20140121260A1", "about": "“NOVEL CONJUGATES OF POLYUNSATURATED FATTY ACIDS WITH AMINES AND THERAPEUTIC USES THEREOF” (MedWell Laboratories Ltd., priority 2006, published 2014)", "key": {"[1]": {"target": "T1, ovine COX-1 (Ovis aries, UniProt P05979)", "T1 construct": "purchased Cayman Chemical 560101", "T1 sequence (P05979 25-600)": "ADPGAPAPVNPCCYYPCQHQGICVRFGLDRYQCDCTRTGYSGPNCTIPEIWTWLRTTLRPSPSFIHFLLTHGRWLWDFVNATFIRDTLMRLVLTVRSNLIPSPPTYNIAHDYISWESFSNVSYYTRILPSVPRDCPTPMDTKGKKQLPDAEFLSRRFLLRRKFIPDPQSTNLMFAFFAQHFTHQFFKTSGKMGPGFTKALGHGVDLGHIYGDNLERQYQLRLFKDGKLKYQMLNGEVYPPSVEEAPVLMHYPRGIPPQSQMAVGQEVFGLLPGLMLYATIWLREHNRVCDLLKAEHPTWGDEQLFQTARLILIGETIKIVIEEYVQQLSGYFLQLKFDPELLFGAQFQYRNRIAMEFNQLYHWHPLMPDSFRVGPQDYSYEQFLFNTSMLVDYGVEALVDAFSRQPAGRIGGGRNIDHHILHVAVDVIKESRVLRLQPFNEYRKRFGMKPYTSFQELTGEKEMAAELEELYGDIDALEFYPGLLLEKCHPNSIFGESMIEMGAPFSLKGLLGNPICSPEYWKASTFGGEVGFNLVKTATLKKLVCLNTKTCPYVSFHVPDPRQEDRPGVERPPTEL", "assay": "In vitro COX-1 inhibition, enzyme immuno assay (EIA) kit", "assay_type": "biochemical", "conditions": "ovine COX-1, EIA, duplicate determinations", "experimental": "(§1) The exemplary conjugates shown in FIGS. 5 A-E, to which reference is now made, were tested for inhibition of COX-1 and COX-2 to in-vitro activity The ability of the test compounds listed in the Table 1 to inhibit ovine COX-1 and COX-2 (IC50 values, […]) was determined using an enzyme immuno assay (EIA) kit catalog number 560101, Cayman Chemical, Ann Arbor, Mich., USA) according to the manufacturers instructions.\n(§2) Cyclooxygenase catalyzes the first step in the biosynthesis of arachidonic acid (AA) to PGH2. PGF2α, produced from PGH2 by reduction with stannous chloride, is measured by enzyme immunoassay (ACETM competitive EIA).\n(§3) Stock solutions of test compounds were dissolved in a minimum volume of DMSO. Briefly, to a series of supplied reaction buffer solutions (960 μL, 0.1M Tris-HCl pH 8.0 containing 5 mM EDTA and 2 mM phenol) with either COX-1 or COX-2 (10 μL) enzyme in the presence of heme (10 μL) were added 10 μL of various concentrations of test drug solutions (0.01, 0.1, 1, 10, 50, and 100 μM in a final volume of 1 mL). These solutions were incubated for a period of 5 min at 37° C. after which 10 μL of AA (100 μM) solution were added and the COX reaction was stopped by the addition of 50 μL of 1M HCl after 2 min. PGF2α, produced from PGH2 by reduction with stannous chloride was measured by enzyme immunoassay.\n(§4) This assay is based on the competition between PGs and a PG-acetylcholinesterase conjugate (PG tracer) for a limited amount of PG antiserum. The amount of PG tracer that is able to bind to the PG antiserum is inversely proportional to the concentration of PGs in the wells since the concentration of PG tracer is held constant while the concentration of PGs varies. The concentration of the test compound causing 50% inhibition (IC50, μM) was calculated from the concentration-inhibition response curve (duplicate determinations)."}, "[2]": {"tested_on": "carrageenin-induced edema of the hind paw", "assay": "Carrageenin-induced paw edema in rats", "conditions": "for Swelling volume: rat hind paw; for decrease in the edema size: after 1 h, versus control", "protocol": "Sprague dawley rats (150-200 g) were used. Edema was induced by a single sub-plantar injection of carrageenin (1 mg/paw) into the left hind paw of the rat under light ether anesthesia. The total volume injected was always 0.1 ml. […] The results were expressed either as the increase in paw volume (ml) calculated by subtracting the basal volume or by calculating the area under the time-course curve (AUC; ml h) for each group."}, "[3]": {"target": "T2, ovine COX-2 (Ovis aries, UniProt P79208)", "T2 construct": "purchased Cayman Chemical 560101", "T2 sequence (P79208 17-603)": "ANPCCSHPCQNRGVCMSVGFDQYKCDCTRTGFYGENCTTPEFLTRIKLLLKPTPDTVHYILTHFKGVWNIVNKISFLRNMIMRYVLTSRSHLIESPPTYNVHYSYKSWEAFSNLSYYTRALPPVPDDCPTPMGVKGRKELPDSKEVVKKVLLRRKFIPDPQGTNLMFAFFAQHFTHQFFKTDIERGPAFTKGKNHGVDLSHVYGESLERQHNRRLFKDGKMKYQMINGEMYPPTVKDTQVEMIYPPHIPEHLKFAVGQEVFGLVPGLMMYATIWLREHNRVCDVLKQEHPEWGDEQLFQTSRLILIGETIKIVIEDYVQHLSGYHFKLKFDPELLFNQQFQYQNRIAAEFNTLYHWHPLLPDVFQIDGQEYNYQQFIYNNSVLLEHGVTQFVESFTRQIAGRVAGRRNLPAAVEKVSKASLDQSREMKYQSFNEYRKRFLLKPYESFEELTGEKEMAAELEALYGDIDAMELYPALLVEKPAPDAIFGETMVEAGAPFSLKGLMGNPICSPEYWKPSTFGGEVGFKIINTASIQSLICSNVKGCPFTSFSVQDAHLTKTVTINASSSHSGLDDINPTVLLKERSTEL", "assay": "In vitro COX-2 inhibition, enzyme immuno assay (EIA) kit", "assay_type": "biochemical", "conditions": "for IC50: ovine COX-2, EIA, duplicate determinations; for Ration (COX ½): ratio of COX-1 IC50 to COX-2 IC50", "experimental": "as §1, §2, §3, §4"}, "[4]": {"tested_on": "inflammatory bowel disease IBD (ulcerative colitis)", "assay": "Tri-nitrobenzene sulfunic acid induced ulcerative colitis in rats, MPO activity in colon", "assay_type": "in vivo, Sprague dawley rats", "conditions": "25 mg/kg rectally, inflamed area of the colon, FIG. 7", "experimental": "The exemplary RNX006 compound shown in FIG. 5 F, to which reference is now made, was tested for the effect on the inflammatory bowel disease IBD (ulcerative colitis) in rats as follows. Male Sprague dawley rats were used in this study. Briefly, ulcerative colitis was induced by tri-nitrobenzene sulfunic acid as described in the literature. Rats were divided into 4 groups, (−) sham (healthy, (+) control ulcerative colitis (UC, not treated), UC treated with RNX006 (25 mg/kg), and UC treated with 5-amino salicylic acid (5-ASA 25 mg/kg). RNX006 and 5-ASA were administered rectally during all the period of the experiment. At the end of the experiment animals were sacrificed and the colon was isolated to test the severity of the inflammation. The severity of the inflammation was tested by measurement of the myeloperoxidase activity (MPO activity) in the inflamed area of the colon."}}, "data": [{"smiles": "CCCCCCCC/C=C/CCCCCCCC(=O)N1CC(O)CC1C(=O)O", "note": "(stereo not drawn) [RNX001]", "values": [{"measurement": "IC50", "setting": "[1]", "value": 72.5, "unit": "µM"}, {"measurement": "Swelling volume", "setting": "[2]; 1 hr after carrageenin", "value": "1.1 ± 0.09", "unit": "mL"}, {"measurement": "Swelling volume", "setting": "[2]; 2 hr after carrageenin", "value": "1.3 ± 0.13", "unit": "mL"}, {"measurement": "Swelling volume", "setting": "[2]; 3 hr after carrageenin", "value": "1.9 ± 0.1", "unit": "mL"}, {"measurement": "Swelling volume", "setting": "[2]; 4 hr after carrageenin", "value": "1.8 ± 0.13", "unit": "mL"}, {"measurement": "decrease in the edema size", "setting": "[2]", "value": 31, "unit": "%"}, {"measurement": "IC50", "setting": "[3]", "value": 1.3, "unit": "µM"}, {"measurement": "Ration (COX ½)", "setting": "[3]", "value": 55.7}]}, {"smiles": "CCCCC/C=C/C/C=C/CCCCCCCC(=O)N1CC(O)CC1C(=O)O", "note": "(stereo not drawn) [RNX002]", "values": [{"measurement": "IC50", "setting": "[1]", "value": 52.7, "unit": "µM"}, {"measurement": "Swelling volume", "setting": "[2]; 1 hr after carrageenin", "value": "0.9 ± 0.06", "unit": "mL"}, {"measurement": "Swelling volume", "setting": "[2]; 2 hr after carrageenin", "value": "1.6 ± 0.09", "unit": "mL"}, {"measurement": "Swelling volume", "setting": "[2]; 3 hr after carrageenin", "value": "2.3 ± 0.11", "unit": "mL"}, {"measurement": "Swelling volume", "setting": "[2]; 4 hr after carrageenin", "value": "2.1 ± 0.13", "unit": "mL"}, {"measurement": "decrease in the edema size", "setting": "[2]", "value": 43.4, "unit": "%"}, {"measurement": "IC50", "setting": "[3]", "value": 0.51, "unit": "µM"}, {"measurement": "Ration (COX ½)", "setting": "[3]", "value": 103.3}]}, {"smiles": "CC/C=C\\C/C=C/C/C=C/C/C=C/C/C=C/CCCC(=O)N1CC(O)CC1C(=O)O", "note": "(stereo not drawn) [RNX004]", "values": [{"measurement": "IC50", "setting": "[1]", "value": 39.5, "unit": "µM"}, {"measurement": "IC50", "setting": "[3]", "value": 0.085, "unit": "µM"}, {"measurement": "Ration (COX ½)", "setting": "[3]", "value": 464.11}]}, {"smiles": "CC/C=C\\C/C=C/C/C=C/C/C=C/C/C=C/C/C=C/CCC(=O)N1CC(O)CC1C(=O)O", "note": "(stereo not drawn) [RNX005]", "values": [{"measurement": "IC50", "setting": "[1]", "value": 42.8, "unit": "µM"}, {"measurement": "IC50", "setting": "[3]", "value": 0.081, "unit": "µM"}, {"measurement": "Ration (COX ½)", "setting": "[3]", "value": 528.68}]}, {"smiles": "CCCCC/C=C/C/C=C/C/C=C/CCCCC(=O)NCCS(=O)(=O)O", "note": "[RNX006]", "values": [{"measurement": "MPO activity relatively to IBD rats treated with 5-ASA", "setting": "[4]", "value": "even a lower MPO activity"}, {"measurement": "MPO activity relatively to the (+) control of non-treated IBD rats", "setting": "[4]", "value": "significantly lower MPO activity"}]}]}
